Experiment: Inhibition of tubulin microtubule disassembly

SMILES	ID50 [µM]
CC(=O)O[C@H]1C(=O)[C@]2(CO)[C@H](O)C[C@H]3OC[C@@]3(OC(C)=O)[C@H]2[C@H](OC(=O)c2ccccc2)[C@]2(O)C[C@H](O)C(C)=C1C2(C)C	> 100
C=C1[C@@H](O)C[C@H](OC(C)=O)[C@@]2(C)[C@@H](OC(C)=O)[C@H](OC(=O)c3ccccc3)C3=C(C)[C@@H](O)C[C@@]3(C(C)(C)O)[C@@H](OC(C)=O)[C@H]12	> 100
CC(=O)O[C@H]1C(=O)[C@@]2(C)[C@H]([C@H](OC(=O)c3ccccc3)[C@]3(O)C[C@H](OC(=O)[C@H](O)[C@@H](NC(=O)c4ccccc4)c4ccccc4)C(C)=C1C3(C)C)[C@]1(OC(C)=O)CO[C@@H]1C[C@@H]2O	0.29
CC(=O)O[C@@]12CO[C@@H]1C[C@@H](O)[C@@]1(C)C(=O)C(=O)C3=C(C)[C@@H](O)C[C@@](O)([C@@H](OC(=O)c4ccccc4)[C@H]21)C3(C)C	> 100
CC(=O)O[C@H]1C[C@]2(C(C)(C)O)C(=C1C)[C@@H](OC(=O)c1ccccc1)[C@H](OC(=O)c1ccccc1)[C@]1(C)[C@@H](OC(C)=O)C[C@H]3OC[C@@]3(OC(C)=O)[C@H]1[C@@H]2OC(=O)c1ccccc1	> 100
CC(=O)O[C@H]1C[C@H]2OC[C@@]2(OC(C)=O)[C@H]2[C@H](OC(C)=O)[C@]3(C(C)(C)O)C[C@H](OC(=O)/C=C/c4ccccc4)C(C)=C3[C@@H](OC(=O)c3ccccc3)[C@H](OC(C)=O)[C@]12C	> 100

Reference: ChEMBL document CHEMBL1147369, “Novel Diterpenoids from Taxus chinensis” (J Nat Prod, 1993)
